pIC50: −log10 of the molar value. Active and inactive are the calls of the source. No cut-off for these calls is given here.
Tests used:
[1] = Selectivity index, ratio of IC50 for cytotoxicity against mouse RAW264.7 cells to IC50 for antitrypanosomal activity against epimastigote stage of Trypanosoma cruzi Dm28c; format: toxicity, cell-based; conditions: read-out: Ratio IC50
Trypanosoma cruzi [2] = experiment: Antitrypanosomal activity against trypomastigote stage of Trypanosoma cruzi Dm28c infected in African green monkey Vero cells assessed as growth inhibition at 20 to 100 uM incubated for 5 to 7 days post infection measured after 24 hrs by MTT assay; format: functional, cell-based
Trypanosoma cruzi [3] = experiment: Antitrypanosomal activity against trypomastigote stage of Trypanosoma cruzi Dm28c infected in African green monkey Vero cells assessed as growth inhibition incubated for 5 to 7 days post infection measured after 24 hrs by MTT assay; format: functional, cell-based
Trypanosoma cruzi [4] = experiment: Induction of free radical species generation in microsomes of Trypanosoma cruzi Dm28c epimastigotes spin adduct formation at 5 mM measured after 10 mins using DMPO spin trap by ESR spectroscopic method; format: functional
Trypanosoma cruzi [5] = experiment: Potency index, ratio of nifurtimox IC50 to compound IC50 for Trypanosoma cruzi Dm28c epimastigotes; format: functional
[6] = Oxidation potential of compound against Ag/Agcl reference electrode at 1 mM by cyclic voltametry; format: physicochemical; conditions: 1000 µM
Trypanosoma cruzi [7] = experiment: Antitrypanosomal activity against Trypanosoma cruzi Dm28c epimastigotes at 10 to 100 uM measured after 24 hrs by MTT assay; format: functional
Trypanosoma cruzi [8] = experiment: Potency index, ratio of nifurtimox IC50 to compound IC50 for Trypanosoma cruzi Dm28c trypamastigotes infected in African green monkey Vero cells; format: functional
[9] = Selectivity index, ratio of IC50 for cytotoxicity against mouse RAW264.7 cells to IC50 for antitrypanosomal activity against trypomastigote stage of Trypanosoma cruzi Dm28c; format: toxicity, cell-based; conditions: read-out: Ratio IC50
[10] = Antioxidant activity assessed as AAPH-induced peroxyl radical scavenging activity by measuring ORAC-FL index at 0.5 to 2.5 uM preincubated for 15 mins followed by AAPH addition measured every 1 min for 120 mins by fluorescence assay relative to trolox; format: functional
[11] = Cytotoxicity against mouse RAW264.7 cells measured after 4 hrs by MTT assay; format: toxicity
Trypanosoma cruzi [12] = experiment: Antitrypanosomal activity against Trypanosoma cruzi Dm28c epimastigotes after 24 hrs by MTT assay; format: functional
[13] = Oxidation potential of compound at group 2 hydroxyl against Ag/Agcl reference electrode at 1 mM by cyclic voltametry
[14] = Induction of free radical species generation assessed as compound-PBN adduct formation at 1 mM by ESR spectroscopic method; format: physicochemical; conditions: 1000 µM
[15] = Oxidation potential of compound at group 1 hydroxyl against Ag/Agcl reference electrode at 1 mM by cyclic voltametry; format: physicochemical; conditions: 1000 µM
[16] = Antioxidant activity assessed as photolysis-induced hydroxyl radical scavenging activity at 1 mM measured after 2 mins using DMPO spin trap by ESR spectroscopic method relative to control; format: functional

Row | Compound | pIC50 (Trypanosoma cruzi [3]) | Activity [6] [V] | pIC50 (Trypanosoma cruzi [12]) | Activity [14] | Activity [15] [V] | selectivity ratio [1] | Activity (Trypanosoma cruzi [2]) | Activity (Trypanosoma cruzi [4]) | Ratio IC50 (Trypanosoma cruzi [5]) | Activity (Trypanosoma cruzi [7]) | Ratio IC50 (Trypanosoma cruzi [8]) | selectivity ratio [9] | Activity [10] | IC50 at 4 h [11] [µM] | Activity [13] [V] | Activity [16] [%]
1 | O=c1oc2c(O)cccc2cc1-c1ccc(O)c(O)c1 | – | 0.81 | 4.07 | – | – | 1.37 | – | – | – | Active | – | – | 4.59 | 115 | – | –
2 | O=c1oc2ccc(O)cc2cc1-c1cccc(O)c1 | – | – | < 4.00 | Active | 0.8 | – | – | – | – | Active | – | – | 5.47 | > 100 | 1.17 | 100
3 | O=c1oc2cc(O)cc(O)c2cc1-c1ccccc1 | – | 1.16 | 5.21 | Active | – | > 16.3 | – | Active | – | Active | – | – | 1.81 | > 100 | – | 100
4 | O=c1oc2ccc(O)cc2cc1-c1ccccc1O | – | 0.79 | < 4.00 | Active | – | – | – | – | – | Active | – | – | 5.3 | > 100 | – | –
5 | O=c1oc2cc(O)cc(O)c2cc1-c1cccc(O)c1 | – | – | < 4.00 | Active | – | – | – | – | – | Active | – | – | 1.95 | > 100 | – | –
6 | O=c1oc2c(O)c(O)ccc2cc1-c1ccc(O)c(O)c1 | – | – | 4.33 | – | 0.64 | 2.07 | – | – | – | Active | – | – | 5.38 | 97.5 | 0.79 | 24.3
7 | CC1CS(=O)(=O)CCN1/N=C/c1ccc([N+](=O)[O-])o1 (configuration not stated) [NIFURTIMOX] | – | – | 4.76 | – | – | 15.1 | – | – | – | – | – | 26.3 | – | 263 | – | –

More lines, main results first:

Row | pIC50 (Trypanosoma cruzi [3]) | Activity [6] [V] | pIC50 (Trypanosoma cruzi [12]) | Activity [14] | Activity [15] [V] | Compound | selectivity ratio [1] | Activity (Trypanosoma cruzi [2]) | Activity (Trypanosoma cruzi [4]) | Ratio IC50 (Trypanosoma cruzi [5]) | Activity (Trypanosoma cruzi [7]) | Ratio IC50 (Trypanosoma cruzi [8]) | selectivity ratio [9] | Activity [10] | IC50 at 4 h [11] [µM] | Activity [13] [V] | Activity [16] [%]
8 | 4.40 | 0.78 | 5.88 | – | – | O=c1oc2c(O)c(O)ccc2cc1-c1ccccc1O | 52.6 | Active | Active | 10 - 13 | Active | <=13 | 1.73 | 2.23 | 68.9 | – | –
9 | – | 0.81 | 4.54 | – | – | O=c1oc2c(O)c(O)ccc2cc1-c1cccc(O)c1 | 13.9 | – | – | – | Active | – | – | 2.95 | 398 | – | 26.1
10 | – | 0.81 | 5.05 | – | – | O=c1oc2c(O)c(O)ccc2cc1-c1ccccc1 | 2.93 | – | Active | – | Active | – | – | 1.11 | 26.1 | – | –
11 | – | 0.74 | < 4.00 | – | – | O=c1oc2c(O)cccc2cc1-c1cccc(O)c1 | – | – | – | – | Active | – | – | 3.12 | > 100 | – | –

From ChEMBL document CHEMBL3872246, “Synthesis, antioxidant and antichagasic properties of a selected series of hydroxy-3-arylcoumarins” (Bioorg Med Chem, 2017)
